Literature values in patent US11504333B2, “Pharmaceutical composition” (NOVARTIS AG, priority 2017, dated 2022).
“Also recorded” adds a separate entry of the source. Like-named read-outs stand apart in the source and are kept apart here.

Columns and labels:
[1] = not given; remark: listed apart in the source

Permeability: high permeability | Solubility ([1]; slightly acidic, neutral pH, and basic media): practically insoluble | Solubility ([1]; strongly acidic aqueous media): very slightly soluble
SMILES: CC(C)(C)c1nc(-c2cccc(NS(=O)(=O)c3c(F)cccc3F)c2F)c(-c2ccnc(N)n2)s1.CS(=O)(=O)O [Compound A, N-{3-[5-(2-Amino-4-pyrimidinyl)-2-(1,1-dimethylethyl)-1,3-thiazol-4-yl]-2-fluorophenyl}-2,6-difluorobenzenesulfonamide, methanesulfonate salt]
Solubility (general) ([1]; aqueous, methanesulfonate salt): low solubility; also recorded: poor aqueous solubility
